The record followed here is patent publication US7186743B2, “Substituted pyrazolyl compounds for the treatment of inflammation” (Pharmacia Corporation, priority 2001, dated 2007).

Molecules are shown by their SMILES. Where a name gives a salt, the structure may show the parent alone.

The first test addresses T1, IKK2 (Homo sapiens, UniProt O14920).
T1 construct: made in house; host or cells: insect cells (baculovirus, pFastBac; SF9)
T1 sequence (O14920 1-756): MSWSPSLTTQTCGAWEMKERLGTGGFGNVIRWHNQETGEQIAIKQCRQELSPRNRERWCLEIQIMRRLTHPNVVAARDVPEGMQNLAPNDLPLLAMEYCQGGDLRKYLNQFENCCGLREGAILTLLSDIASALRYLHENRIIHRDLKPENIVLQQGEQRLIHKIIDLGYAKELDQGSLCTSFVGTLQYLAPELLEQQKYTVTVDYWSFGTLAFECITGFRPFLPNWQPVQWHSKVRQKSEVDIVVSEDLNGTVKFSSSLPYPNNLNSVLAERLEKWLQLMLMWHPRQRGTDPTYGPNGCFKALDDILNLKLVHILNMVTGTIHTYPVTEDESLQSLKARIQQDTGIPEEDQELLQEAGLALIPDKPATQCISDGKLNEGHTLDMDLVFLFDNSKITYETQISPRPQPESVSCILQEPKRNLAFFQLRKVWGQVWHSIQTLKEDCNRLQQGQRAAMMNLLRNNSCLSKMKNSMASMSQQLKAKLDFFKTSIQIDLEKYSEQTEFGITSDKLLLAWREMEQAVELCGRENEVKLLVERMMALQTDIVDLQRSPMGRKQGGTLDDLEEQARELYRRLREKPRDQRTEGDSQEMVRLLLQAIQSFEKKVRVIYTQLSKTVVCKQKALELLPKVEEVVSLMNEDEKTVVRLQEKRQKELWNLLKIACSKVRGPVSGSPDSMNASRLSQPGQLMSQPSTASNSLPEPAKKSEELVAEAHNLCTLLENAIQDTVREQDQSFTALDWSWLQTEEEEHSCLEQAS
As to the kind of experiment: IKKβ Resin Enzyme Assay (IKK2 resin). The class given is biochemical. The conditions noted are these: Table 4; read-out: IKK2 Resin IC50. Put shortly:
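Radiometric test: [γ-33P]ATP incorporation into a biotinylated IκBα peptide, 30 min at 25° C, pH 7.6 Hepes with MgCl2/MnCl2 and 1 μM cold ATP. Reaction is quenched with Dowex resin and the supernatant is counted. Kinase is FLAG-purified homodimeric recombinant human IKK2 from insect cells.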
On to `NC(=O)c1nn(-c2ccc3c(c2)OCO3)c2c1CCc1ccc(NC(=O)c3ccc(C(F)(F)F)nc3Cl)cc1-2` [Example 181, 1-(1,3-benzodioxol-5-yl)-8-({[2-chloro-6-(trifluoromethyl)pyridin-3-yl]carbonyl}amino)-4,5-dihydro-1H-benzo[g]indazole-3-carboxamide], for which the IC50 was at most 1000 nM. Consider `COc1ccc(C(=O)Nc2ccc3c(c2)-c2c(c(C(N)=O)nn2-c2ccc4c(c2)OCO4)CC3)c(Cl)c1` [Example 182, 1-(1,3-benzodioxol-5-yl)-8-[(2-chloro-4-methoxybenzoyl)amino]-4,5-dihydro-1H-benzo[g]indazole-3-carboxamide], for which the IC50 is at most 1000 nM. The same measure, in the same setting: the value for `CN(C)c1ccc(Cl)c(C(=O)Nc2ccc3c(c2)-c2c(c(C(N)=O)nn2-c2ccc4c(c2)OCO4)CC3)c1` [Example 183, 1-(1,3-benzodioxol-5-yl)-8-{[2-chloro-5-(dimethylamino)benzoyl]amino}-4,5-dihydro-1H-benzo[g]indazole-3-carboxamide] was at most 1000 nM. Same read-out and setting: the value for `NC(=O)c1nn(-c2ccc3c(c2)OCO3)c2c1CCc1ccc(NC(=O)c3ccc([N+](=O)[O-])cc3Cl)cc1-2` [Example 184, 1-(1,3-benzodiaxol-5-yl)-8-[(2-chloro-4-nitrobenzoyl)amino]-4,5-dihydro-1H-benzo[g]indazole-3-carboxamide] was at most 1000 nM; that for `CS(=O)(=O)c1ccc(Cl)c(C(=O)Nc2ccc3c(c2)-c2c(c(C(N)=O)nn2-c2ccc4c(c2)OCO4)CC3)c1` [Example 185, 1-(1,3-benzodioxol-5-yl)-8-{[2-chloro-5-(methylsulfonyl)benzoyl]amino}-4,5-diliydro-1H-benzo[g]indazole-3-carboxamide] was at most 1000 nM; that for `NC(=O)c1nn(-c2ccc3c(c2)OCO3)c2c1CCc1ccc(NC(=O)c3ccc(O)nc3)cc1-2` [Example 186, 1-(1,3-benzodioxol-5-yl)-8-{[(6-hydroxypyridin-3-yl)carbonyl]amino}-4,5-dihydro-1H-benzo[g]indazole-3-carboxamide] was at most 1000 nM.

As to `Cc1ccncc1C(=O)Nc1ccc2c(c1)-c1c(c(C(N)=O)nn1-c1ccc3c(c1)OCO3)CC2` [Example 187, 1-(1,3-benzodioxol-5-yl)-8-{[(4-methylpyridin-3-yl)carbonyl]amino}-4,5-dihydro-1H-benzo[g]indazole-3-carboxamide], the IC50 is at most 1000 nM. On the same count and under the same terms, the value for `NC(=O)c1nn(-c2ccc3c(c2)OCO3)c2c1CCc1ccc(NC(=O)c3cc(Cl)ccc3Cl)cc1-2` [Example 189, 1-(1,3-benzodioxol-5-yl)-8-[(2,5-dichlorobenzoyl)amino]-4,5-dihydro-1H-benzo[g]indazole-3-carboxamide] was at most 1000 nM; that for `CSc1ccc(Cl)c(C(=O)Nc2ccc3c(c2)-c2c(c(C(N)=O)nn2-c2ccc4c(c2)OCO4)CC3)c1` [Example 190, 1-(1,3-benzodioxol-5-yl)-8-{2-chloro-5-[2-(methylthio)benzoyl]amino}-4,5-dihydro-1H-benzo[g]indazole-3-carboxamide] was at most 1000 nM; that for `NC(=O)c1nn(-c2ccc3c(c2)OCO3)c2c1CCc1ccc(NC(=O)c3ccccc3[N+](=O)[O-])cc1-2` [Example 192, 1-(1,3-benzodioxol-5-yl)-8-[(2-nitrobenzoyl)amino]-4,5-dihydro-1H-benzo[g]indazole-3-carboxamide] was at most 1000 nM. `NC(=O)c1nn(-c2ccc3c(c2)OCO3)c2c1CCc1ccc(NC(=O)c3cccc(Cl)c3Cl)cc1-2` [Example 194, 1-(1,3-benzodioxol-5-yl)-8-[(2,3-dichlorobenzoyl)amino]-4,5-dihydro-1H-benzo[g]indazole-3-carboxamide]: the IC50 was at most 1000 nM. Regarding `NC(=O)c1nn(-c2ccc3c(c2)OCO3)c2c1CCc1ccc(NC(=O)c3ccc(Cl)cc3Cl)cc1-2` [Example 195, 1-(1,3-benzodioxol-5-yl)-8-[(2,4-dichlorobenzoyl)amino]-4,5-dihydro-1H-benzo[g]indazole-3-carboxamide], the IC50 is at most 1000 nM.

On to `NC(=O)c1nn(-c2ccc3c(c2)OCO3)c2c1CCc1ccc(NC(=O)c3ccncc3)cc1-2` [Example 196, 1-(1,3-benzodioxol-5-yl)-8-(isonicotinoylamino)-4,5-dihydro-1H-benzo[g]indazole-3-carboxamide], for which the IC50 is at most 1000 nM.

As for `Cc1c(O)cccc1C(=O)Nc1ccc2c(c1)-c1c(c(C(N)=O)nn1-c1ccc3c(c1)OCO3)CC2` [Example 198, 1-(1,3-benzodioxol-5-yl)-8-[(3-hydroxy-2-methylbenzoyl)amino]-4,5-dihydro-1H-benzo[g]indazole-3-carboxamide], the IC50 is at most 1000 nM.

Staying with this test, now noted: Table 5; read-out: IKK2 Resin Avg. IC50.
For the molecule `CN1CCN(c2ccc(Cl)c(C(=O)Nc3ccc4c(c3)-c3c(c(C(N)=O)nn3-c3ccc5c(c3)OCO5)CC4)n2)CC1` [Example 217, 1-(1,3-benzodioxol-5-yl)-8-({[3-chloro-6-(4-methylpiperazin-1-yl)pyridin-2-yl]carbonyl}amino)-4,5-dihydro-1H-benzo[g]indazole-3-carboxamide], the IC50 was at most 1000 nM. Same read-out and setting: the figure for `CN(C)CCSc1ccc(Cl)c(C(=O)Nc2ccc3c(c2)-c2c(c(C(N)=O)nn2-c2ccc4c(c2)OCO4)CC3)n1` [Example 218, 1-(1,3-benzodioxol-5-yl)-8-{[(3-chloro-6-{[2-(dimethylamino)ethyl]thio}pyridin-2-yl)carbonyl]amino}-4,5-dihydro-1H-benzo[g]indazole-3-carboxamide] is at most 1000 nM.

Still in this test, the particulars now being: Table 6; read-out: IKK2 Resin IC 50.
`NC(=O)c1nn(-c2ccc(F)cc2)c2c1CCc1ccc(NC(=O)c3cc(Cl)cnc3Cl)cc1-2` [Example 223, 8-{[(2,5-dichloropyridin-3-yl)carbonyl]amino}-1-(4-fluorophenyl)-4,5-dihydro-1H-benzo[g]indazole-3-carboxamide]: the IC50 was at most 1000 nM.

Turning to `NC(=O)c1nn(-c2ccc(F)cc2)c2c1CCc1ccc(NC(=O)c3cccnc3Cl)cc1-2` [Example 225, 8-{[(2-chloropyridin-3-yl)carbonyl]amino}-1-(4-fluorophenyl)-4,5-dihydro-1H-benzo[g]indazole-3-carboxamide], the IC50 was at most 1000 nM. On to `CS(=O)(=O)c1ccc(C(=O)Nc2ccc3c(c2)-c2c(c(C(N)=O)nn2-c2ccc(F)cc2)CC3)c(Cl)c1` [Example 226, 8-{[2-chloro-4-(methylsulfonyl)benzoyl]amino}-1-(4-fluorophenyl)-4,5-dihydro-1H-benzo[g]indazole-3-carboxamide], for which the IC50 was at most 1000 nM. For `Cc1ccc(C(=O)Nc2ccc3c(c2)-c2c(c(C(N)=O)nn2-c2ccc(F)cc2)CC3)c(Cl)n1` [Example 227, 8-{[(2-chloro-6-methylpyridin-3-yl)carbonyl]amino}-1-(4-fluorophenyl)-4,5-dihydro-1H-benzo[g]indazole-3-carboxamide], the IC50 was at most 1000 nM. Consider `NC(=O)c1nn(-c2ccc(F)cc2)c2c1CCc1ccc(NC(=O)c3ccncc3Cl)cc1-2` [Example 228, 8-[(3-chloroisonicotinoyl)amino]1-(4-fluorophenyl)-4,5-dihydro-1H-benzo[g]indazole-3-carboxamide hydrochloride], for which the IC50 is at most 1000 nM. For `NC(=O)c1nn(-c2ccc(F)cc2)c2c1CCc1ccc(NC(=O)c3cccc(N)c3Cl)cc1-2` [Example 229, 8-[(3-amino-2-chlorobenzoyl)amino]-1-(4-fluorophenyl)-4,5-dihydro-1H-benzo[g]indazole-3-carboxamide], the IC50 was at most 1000 nM. On to `NC(=O)c1nn(-c2ccc(F)cc2)c2c1CCc1ccc(NC(=O)c3ccccc3Cl)cc1-2` [Example 230, 8-[(2-chlorobenzoyl)amino]-1-(4-fluorophenyl)-4,5-dihydro-1H-benzo[g]indazole-3-carboxamide], for which the IC50 is at most 1000 nM. Same read-out and setting: the value for `Cc1c(O)cccc1C(=O)Nc1ccc2c(c1)-c1c(c(C(N)=O)nn1-c1ccc(F)cc1)CC2` [Example 231, 1-(4-fluorophenyl)-8-[(3-hydroxy-2-methylbenzoyl)amino]-4,5-dihydro-1H-benzo[g]indazole-3-carboxamide] was at most 1000 nM; that for `NC(=O)c1nn(-c2ccc(F)cc2)c2c1CCc1ccc(NC(=O)c3ccc(N)cc3Cl)cc1-2` [Example 232, 8-[(4-amino-2-chlorobenzoyl)amino]-1-(4-fluorophenyl)-4,5-dihydro-1H-benzo[g]indazole-3-carboxamide] was at most 1000 nM. For the molecule `COc1ccc(C(=O)Nc2ccc3c(c2)-c2c(c(C(N)=O)nn2-c2ccc(F)cc2)CC3)c(Cl)c1` [Example 233, 8-[(2-chloro-4-methoxybenzoyl)amino]-1-(4-fluorophenyl)-4,5-dihydro-1H-benzo[g]indazole-3-carboxamide], the IC50 is at most 1000 nM.
